Measurements: PMC6522981, “Structure-based design generated novel hydroxamic acid based preferential HDAC6 lead inhibitor with on-target cytotoxic activity against primary choroid plexus carcinoma” (Journal of Enzyme Inhibition and Medicinal Chemistry, 2019)
“Also recorded” adds a separate entry of the source. Read-outs that look alike come from different tables or passages of the source.

Assays:
human HDAC4 = human HDAC4 (Homo sapiens, UniProt P56524); test: HDAC4 inhibitor enzymatic assay, % inhibition at fixed concentration; details: read-out: %inhibition of HDACs at 10µM of test compound HDAC4
Chain of human HDAC4 (P56524 627-1084 limits assumed): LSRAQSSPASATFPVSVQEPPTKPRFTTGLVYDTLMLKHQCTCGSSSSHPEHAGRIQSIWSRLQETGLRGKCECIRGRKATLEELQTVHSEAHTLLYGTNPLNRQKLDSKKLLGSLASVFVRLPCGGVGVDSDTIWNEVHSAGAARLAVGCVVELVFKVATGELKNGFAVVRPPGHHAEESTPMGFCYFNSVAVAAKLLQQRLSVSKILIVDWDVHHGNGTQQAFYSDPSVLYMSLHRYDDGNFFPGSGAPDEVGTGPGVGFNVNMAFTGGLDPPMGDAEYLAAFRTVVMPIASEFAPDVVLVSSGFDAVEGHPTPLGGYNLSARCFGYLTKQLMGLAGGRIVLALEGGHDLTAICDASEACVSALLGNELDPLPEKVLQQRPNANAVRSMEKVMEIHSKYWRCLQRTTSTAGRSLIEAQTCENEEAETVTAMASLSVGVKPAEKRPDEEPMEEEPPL

[1] = test system: CCHE-45 cells (primary choroid plexus carcinoma); test: Cytotoxicity assay using xCELLigence system; assay type: cell-based; details: for IC50: xCELLigence, 96 h exposure, mean of three replicates, read-out: CCHE-45 IC50 (µM)±SEM
Method: Established primary Choroid plexus carcinoma (CCHE-45) were cultured as previously described, in RPMI-1640 (Lonza, BE-12-702F) supplemented with 10% Fetal Bovine Serum (FBS, Gibco, 12483–020) and 100 U/ml penicillin and 100 µg/ml streptomycin (Lonza, DE17-602F). Cells were maintained at 37 °C in a 5% CO2 humidified atmosphere.
Cytotoxicity assay by the xCELLigence system was performed using RTCA xCELLigence DP system (ACEA Biosciences, Inc., San Diego, CA, USA) as per manufacturer’s instructions https://www.aceabio.com/products/rtca-dp/, https://www.aceabio.com/products/rtca-sp[65–68]. In brief, after setting up the instruments and blanking the wells with media, CCHE-45 cells were seeded into the 96 well E-plate (ACEA Biosciences) with a density of 20,000 cells/well. Attachment and growth of the cells were monitored every 1 h. Approximately 24 h after seeding, when the cells were in the log growth phase, the cells were exposed to a range of test compound 10a concentrations (3.125, 6.25, 12.5, 25, 50, 100, 200, 400) µM for 96 h. Controls received either medium alone, or medium + DMSO with a final concentration below of 0.5%. For each concentration, duplicates were tested. Experiments were conducted in three biological repeats. Results were analyzed using the RTCA software (Version 2.0). Data was exported and average IC50 value was analyzed.
• Based on previous pilot experiment, the highest SK114 conc. (100µM)
72hrs, thus this experiment was performed with higher concentration
• Cells were incubated with the drug for 96hrs
• Experiment was done in technical duplicates

[2] = test system: acetylated α-tubulin in CCHE-45 cells; test: Western blot analysis of acetylated α-tubulin in CCHE-45 cells; assay type: cell-based; details: 100 µM, 24 h
Method: (§1) CCHE-45 cells were treated with 100 µM of test compound for 24 h. HL60 cell line (a kind gift from Professor Azza Kamel from the National Cancer Institute, Cairo University); and is cultured in RPMI-1640 (Lonza, BE-12-702F) supplemented with 10% Fetal Bovine Serum (FBS, Gibco, 12483–020) and 100 U/ml penicillin and 100 µg/ml streptomycin (Lonza, DE17-602F), has also been treated with different concentrations of 10a in twofold serial dilutions for 24 h. Proteins were extracted from CCHE-45 cells using RIPA Lysis and Extraction Buffer (ThermoScientific, cat. No: 89901) containing 100x Halt Protease and […] Inhibitor Cocktail (ThermoScientific, cat. No. 78444). Followed by protein quantification using Bradford Reagent (Pierce Coomassie Plus (Bradford) Assay Reagent) (ThermoScientific, cat. No. 23238). A total of 50 µg proteins were loaded on a 10% SDS page using 30% Acrylamide/Bisacrylamide 19:1(Serva, cat. No. 10679.01) then transferred by semidry transfer method using Bio-Rad Trans-Blot Turbo transfer system on PVDF Transfer Membrane (ThermoScientific, cat. No. 88518). The membranes were incubated overnight at 4 °C in the primary antibodies Mouse monoclonal Anti-Beta Actin antibody (1:100, abcam, ab8224) and Mouse monoclonal Anti-acetylated α Tubulin (1:200, Santa Cruz Biotechnology, sc-23950). […]

human HDAC9 = human HDAC9 (Homo sapiens, UniProt Q9UKV0); test: HDAC9 inhibitor enzymatic assay, % inhibition at fixed concentration; details: read-out: %inhibition of HDACs at 10µM of test compound HDAC9
Chain of human HDAC9 (Q9UKV0 1-1066 isoform Q9UKV0-5): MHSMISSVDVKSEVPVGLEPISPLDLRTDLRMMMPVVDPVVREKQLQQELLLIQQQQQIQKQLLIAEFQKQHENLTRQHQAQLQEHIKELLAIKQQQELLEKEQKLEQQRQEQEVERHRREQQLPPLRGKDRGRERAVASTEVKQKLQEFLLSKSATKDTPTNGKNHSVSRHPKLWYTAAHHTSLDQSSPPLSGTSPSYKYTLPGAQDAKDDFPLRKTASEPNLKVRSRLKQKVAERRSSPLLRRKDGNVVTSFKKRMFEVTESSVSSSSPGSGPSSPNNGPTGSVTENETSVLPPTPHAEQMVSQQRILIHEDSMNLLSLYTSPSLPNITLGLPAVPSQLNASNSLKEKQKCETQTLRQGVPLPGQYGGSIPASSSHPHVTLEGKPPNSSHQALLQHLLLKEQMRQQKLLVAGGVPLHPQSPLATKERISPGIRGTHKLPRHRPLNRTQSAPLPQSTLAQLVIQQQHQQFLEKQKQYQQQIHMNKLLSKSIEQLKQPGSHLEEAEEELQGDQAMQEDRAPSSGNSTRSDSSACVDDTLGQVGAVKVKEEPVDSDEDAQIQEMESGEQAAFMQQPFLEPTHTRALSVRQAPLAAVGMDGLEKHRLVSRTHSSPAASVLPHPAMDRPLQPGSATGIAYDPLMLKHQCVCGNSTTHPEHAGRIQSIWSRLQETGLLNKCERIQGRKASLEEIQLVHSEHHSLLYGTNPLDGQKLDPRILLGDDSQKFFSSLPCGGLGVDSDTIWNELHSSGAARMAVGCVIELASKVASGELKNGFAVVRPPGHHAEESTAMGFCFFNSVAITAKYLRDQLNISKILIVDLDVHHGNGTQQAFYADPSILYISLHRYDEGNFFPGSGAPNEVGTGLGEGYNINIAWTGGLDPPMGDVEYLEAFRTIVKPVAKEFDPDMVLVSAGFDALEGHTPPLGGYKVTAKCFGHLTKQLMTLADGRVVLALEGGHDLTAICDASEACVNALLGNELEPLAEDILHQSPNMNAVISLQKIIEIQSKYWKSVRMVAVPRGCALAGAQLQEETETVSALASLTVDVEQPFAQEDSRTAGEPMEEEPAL

human HDAC5 = human HDAC5 (Homo sapiens, UniProt Q9UQL6); test: HDAC5 inhibitor enzymatic assay, % inhibition at fixed concentration; details: read-out: %inhibition of HDACs at 10µM of test compound HDAC5
Chain of human HDAC5 (Q9UQL6 656-1122 limits assumed): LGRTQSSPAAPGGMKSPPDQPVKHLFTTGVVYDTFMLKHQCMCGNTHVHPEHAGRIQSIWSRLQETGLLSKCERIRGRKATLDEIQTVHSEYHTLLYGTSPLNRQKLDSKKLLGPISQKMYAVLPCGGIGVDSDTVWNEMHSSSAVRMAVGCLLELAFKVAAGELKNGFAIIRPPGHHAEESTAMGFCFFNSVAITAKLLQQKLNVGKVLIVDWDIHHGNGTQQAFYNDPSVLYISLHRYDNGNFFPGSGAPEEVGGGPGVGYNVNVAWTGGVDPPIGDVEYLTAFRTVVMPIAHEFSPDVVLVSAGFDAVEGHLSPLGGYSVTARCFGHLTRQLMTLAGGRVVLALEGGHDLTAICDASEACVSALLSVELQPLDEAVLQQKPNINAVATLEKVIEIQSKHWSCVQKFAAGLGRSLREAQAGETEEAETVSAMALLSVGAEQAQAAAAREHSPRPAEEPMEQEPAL

human HDAC1 = molecular target: T1, human HDAC1 (Homo sapiens, UniProt Q13547); test: HDAC1 inhibitor enzymatic assay, % inhibition at fixed concentration (BPS Bioscience, fluorogenic); assay type: biochemical; details: read-out: %inhibition of HDACs at 10µM of test compound HDAC1; 10 µM compound; mean of two replicates
T1 construct: purchased BPS Bioscience 50051
T1 sequence (Q13547 whole entry): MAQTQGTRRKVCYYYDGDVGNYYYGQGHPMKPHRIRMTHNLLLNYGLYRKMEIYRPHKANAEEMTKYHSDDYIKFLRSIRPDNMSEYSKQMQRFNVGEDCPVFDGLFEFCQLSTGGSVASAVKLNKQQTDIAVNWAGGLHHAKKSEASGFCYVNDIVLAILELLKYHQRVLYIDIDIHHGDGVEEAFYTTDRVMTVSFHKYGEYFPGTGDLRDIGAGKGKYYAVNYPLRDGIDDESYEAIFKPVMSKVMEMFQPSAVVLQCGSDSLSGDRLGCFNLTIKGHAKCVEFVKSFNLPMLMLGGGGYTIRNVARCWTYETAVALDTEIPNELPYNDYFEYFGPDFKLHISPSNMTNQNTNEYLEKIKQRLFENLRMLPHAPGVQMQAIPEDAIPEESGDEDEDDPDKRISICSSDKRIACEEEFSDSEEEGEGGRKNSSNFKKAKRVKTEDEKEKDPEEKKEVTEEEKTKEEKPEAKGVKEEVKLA

[3] = test system: acetylated α-tubulin in HL60 cells; test: Western blot analysis of acetylated α-tubulin in HL60 cells; assay type: cell-based; details: 24 h
Method: as §1

- inhibition at 10 µM (human HDAC4): 1%
- inhibition at 10 µM (human HDAC9): 5%
- inhibition at 10 µM (human HDAC5): 4%
- inhibition at 10 µM (human HDAC1): 36%
Structure (SMILES): O=C(CCCSc1nc2ccccc2n1Cc1ccccc1)NO [Compound 10a, 4-((1-benzyl-1H-benzo[d]imidazol-2-yl)thio)-N-hydroxybutanamide]
- effect on cell index of CCHE-45, pilot experiment ([1]; 100 µM (highest conc.), 72 hrs): lowered cell index and induced cell death
- effect on cell index (CI) of CCHE-45 ([1]; 100 µM, after 24 h from addition of the drug): reduced CI to half the maximum CI
- effect on cell index (CI) of CCHE-45 ([1]; 400 µM or 200 µM, monitoring for 96 h): quick and dramatic reduction in cell index
- IC50 ([1]; 96 h): 113 µM
- IC50 [1]: 113 ± 11.1 µM
- acetylated α-tubulin level (Western blot) [2]: significant increase; also recorded: upregulated acetylated α-tubulin
- concentration with significant upregulation of acetylated α-tubulin ([3]; 6.25-100 µM tested): 25 µM
- concentration from which acetylated α-tubulin is upregulated ([3]; Figure 6 legend): ≥ 12.5 µM
